From patent US20160206726A1, “IMMUNOTHERAPY” (priority 2013, published 2016) come the findings set out here.

For test [1], the system named is LCLs (tumour B cells). Nature of the test: LCL pulsed with cyclic or linear peptide with or without protease inhibitor cocktail; IFN-γ assayed for T cell recognition. The test is classed as cell-based. The note with it: 10 ug peptide. Here is the method: LCLs (tumour B cells) were incubated with or without a protease inhibitor cocktail for 2 hrs at 37° C. […] (SEQ ID No: 278). The protease cleavage sequence “FR” is recognised by Cathepsin B and the T cell epitope […] is restricted to HLA-A*0201. […] These cells were incubated with peptide-specific T cells overnight and IFN-γ assayed for T cell recognition of the processed peptide.

In the next test the test system is healthy B cells. Nature of the test: Healthy B cells pulsed with cyclic or linear peptide with or without protease inhibitor cocktail; IFN-γ assayed for T cell recognition. In kind it is cell-based. The note with it: 10 ug peptide. As for the experimental part:
LCLs (tumour B cells) or healthy B cells were incubated with or without a protease inhibitor cocktail for 2 hrs at 37° C. […] The amino acid sequence of the cyclic peptide was […] (SEQ ID No: 278). The protease cleavage sequence “FR” is recognised by Cathepsin B and the T cell epitope […] is restricted to HLA-A*0201. The cyclic peptide was obtained from JPT Peptide Technologies. These cells were incubated with peptide-specific T cells overnight and IFN-γ assayed for T cell recognition of the processed peptide.

For test [2], the system named is LCLs (tumour B cells). Nature of the test: Plasma stability of cyclic peptide in LCL model (IFN-γ T cell recognition after plasma treatment). In kind it is in vitro ADME, human. As for the experimental part: LCLs (tumour B cells) were incubated with or without a protease inhibitor cocktail (PIC) for 2 hrs at 37° C. […] These cells were incubated with peptide-specific T cells overnight and IFN-γ assayed for T cell recognition of the processed peptide.

In test [3] the test system is SW620 cells (colorectal cell line). As to the kind of experiment: SW620 colorectal cell line pulsed with cyclic or linear peptide with or without protease inhibitor cocktail; IFN-γ assayed for T cell recognition. The note with it: 10 ug peptide. The test is classed as cell-based. Here is the method:
SW620 cells (colorectal cell line) incubated with or without a protease inhibitor cocktail for 2 hrs at 37° C. […] These cells were incubated with peptide-specific T cells overnight and IFN-γ assayed for T cell recognition of the processed peptide.
As a control for this, T cells alone were treated with the cyclic peptide. T cells should not process the cyclic form of the peptide but would be able to present the linear form and therefore the level of IFN-γ produced in this control would account for the amount of linear peptide present in the vial of cyclic peptide.

Test [4] shares this test system. As to the kind of experiment: Plasma stability of cyclic peptide in colorectal cancer model (IFN-γ T cell recognition after plasma treatment). The test is classed as in vitro ADME, human. The note with it: no target cells. As for the experimental part:
(§1) These cells were incubated with peptide-specific T cells overnight and IFN-γ assayed for T cell recognition of the processed peptide.

A further test concerns LCL target cells. As to the kind of experiment: Comparison of the plasma stability of cyclic peptide and APEC in LCL model (IFN-γ T cell recognition after plasma treatment). The note with it: no target cells. The test is classed as in vitro ADME, human. As for the experimental part: as §1
[5] abbreviates: protease inhibitor cocktail 2 hrs at 37° C.

Take FRGGANLVPMVATVAA [cyclic peptide]: the “response with the protease inhibitors compared with T cells cultured with the cyclic peptide alone” value (in the test on LCLs (tumour B cells) [1]; in test [3]) was “very similar to the level seen when T cells were cultured with the cyclic peptide alone” each time. For the same sequence, the “decrease in the T cell recognition in the presence of the protease inhibitors” value in the test on LCLs (tumour B cells) [1] (setting [5]) was ~75%; in test [3] (setting [5]), ~65%. The “T cell recognition (IFN-γ) of pulsed target cells, with versus without protease inhibitors” value with LCLs (tumour B cells) [1] (protease inhibitor cocktail 2 hrs at 37° C, peptide-specific T cells overnight) is listed as “much larger response to IFN-γ when cultured in the absence of the protease inhibitors”; in test [3] (setting [5]) it was “much larger response to IFN-γ when cultured in the absence of the protease inhibitors”. The “amount of IFN-γ with healthy B cells compared with LCL” value with healthy B cells was “significantly decreased amount of IFN-γ compared to the LCL treated with the cyclic peptide”. Moreover, in the test on healthy B cells (setting [5]), the “T cell recognition (IFN-γ) of pulsed healthy B cells, with versus without protease inhibitors” value was “little difference in the response”. For the same sequence, the “effect of protease inhibitor cocktail on response to plasma-treated peptide” value in the test with LCLs (tumour B cells) [2] (LCLs pre-incubated with PIC, peptide treated 4 hrs with human plasma) was “there is a decrease when target cells were pre-incubated with the protease inhibitor cocktail”. Besides, the “response of T cells alone labelled with the peptide, without and with serum treatment” value was “very small response to the peptide which then disappears upon treatment of the peptide with serum” with LCLs (tumour B cells) [2] (T cells alone, no target cells); “very small response to the peptide which then disappears upon treatment of the peptide with serum” in test [4]; “very small response to the peptide which then disappears upon treatment of the peptide with serum” in the test on LCL target cells.
